Source: patent US10208021B2, “Substituted tetrahydroisoquinoline compounds as factor XIa inhibitors” (BRISTOL-MYERS SQUIBB COMPANY, priority 2011, dated 2019)

Target: purified human Factor XIa (Homo sapiens (Human), UniProt P03951)
Test: Factor XIa chromogenic substrate (S-2366) inhibition assay
Type: biochemical
Outline: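 Ki derived from reaction velocities measured in the presence of inhibitor. Purified protease hydrolysed the chromogenic substrate; rate of absorbance change was followed over 20-180 minutes, depending on the protease.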

[1] = substrate S-2366, activity ranges, Table A

Chain of purified human Factor XIa (P03951 388-625): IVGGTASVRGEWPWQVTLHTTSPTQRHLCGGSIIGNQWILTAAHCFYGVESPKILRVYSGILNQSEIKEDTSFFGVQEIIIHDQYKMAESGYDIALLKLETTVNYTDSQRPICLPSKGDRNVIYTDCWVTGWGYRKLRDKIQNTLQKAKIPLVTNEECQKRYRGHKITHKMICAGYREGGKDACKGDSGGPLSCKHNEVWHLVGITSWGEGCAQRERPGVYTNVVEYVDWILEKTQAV
Chain of purified human Factor XIa (P03951 19-387 partner): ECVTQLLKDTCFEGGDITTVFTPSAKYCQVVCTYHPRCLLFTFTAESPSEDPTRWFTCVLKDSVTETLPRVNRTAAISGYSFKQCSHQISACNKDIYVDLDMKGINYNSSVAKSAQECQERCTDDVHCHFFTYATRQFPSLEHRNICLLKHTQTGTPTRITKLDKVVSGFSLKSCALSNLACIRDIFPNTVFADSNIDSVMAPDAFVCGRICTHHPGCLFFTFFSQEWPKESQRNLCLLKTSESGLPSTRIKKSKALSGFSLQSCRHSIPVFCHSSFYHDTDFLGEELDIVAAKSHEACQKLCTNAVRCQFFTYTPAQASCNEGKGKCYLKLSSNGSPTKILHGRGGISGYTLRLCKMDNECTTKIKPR

| SMILES | Ki [1] [nM] | Ki (substrate S-2366, Table 1) [nM] |
| --- | --- | --- |
| O=C(Nc1ccc(Cl)cc1)C1c2cccc(N3CCC(N4CCCC4)CC3)c2CCN1C(=O)C=Cc1c(-n2cnnn2)ccc(Cl)c1F (stereo not drawn) [Example 111] | 500 to 5000 | – |
| CCOC(=O)c1ccc(NC(=O)[C@@H]2c3cccc(N4CCNCC4=O)c3CCN2C(=O)/C=C/c2c(-n3cnnn3)ccc(Cl)c2F)cc1 [Example 190] | 5 to 10 | – |
| CC(=O)c1ccc(Cl)c(F)c1/C=C/C(=O)N1CCc2c(cccc2N2CCC(N3CCCC3)CC2)C1C(=O)Nc1ccc(C(=O)OC(C)(C)C)cc1 (racemic) [Example 153] | 5 to 10 | – |
| O=C(O)c1ccc(NC(=O)C2c3cccc(N4CCC(N5CCCC5)CC4)c3CCN2C(=O)C=Cc2c(C(F)(F)F)ccc(Cl)c2F)cc1 (stereo not drawn) [Example 178] | < 5 | – |
| O=C(O)c1ccc(NC(=O)C2c3cccc(N4CCS(=O)(=O)CC4)c3CCN2C(=O)/C=C/c2c(C(F)(F)F)ccc(Cl)c2F)cc1 (racemic) [Example 225] | < 5 | – |
| CCOC(=O)c1cc(C)n(-c2cccc3c2CCN(C(=O)/C=C/c2c(-n4cnnn4)ccc(Cl)c2F)C3C(=O)Nc2ccc(F)cc2)n1 (stereo not drawn) [Example 242, (E)-Ethyl 1-(2-(3-(3-chloro-2-fluoro-6-(1H-tetrazol-1-yl)phenyl)acryloyl)-1-(4-fluorophenylcarbamoyl)-1,2,3,4-tetrahydroisoquinolin-5-yl)-5-methyl-1H-pyrazole-3-carboxylate] | 100 to 500 | – |
| O=C(Nc1ccc2cn[nH]c2c1)C1c2cccc(N3CCOCC3=O)c2CCN1C(=O)/C=C/c1c(-n2cnnn2)ccc(Cl)c1F (racemic) [Example 47] | < 5 | – |
| COCCCNC(=O)C1c2cccc(N3CCC(N4CCCC4)CC3)c2CCN1C(=O)/C=C/c1c(-n2cnnn2)ccc(Cl)c1F (racemic) [Example 229] | 100 to 500 | – |
| CCOC(=O)c1ccc(NC(=O)C2c3cccc(N4CCC(N5CCCC5)CC4)c3CCN2C(=O)C=Cc2c(C#N)ccc(Cl)c2F)cc1 (stereo not drawn) [Example 166] | 5 to 10 | – |
| O=C1CCC2(CCN(c3cccc4c3CCN(C(=O)/C=C/c3c(-n5cnnn5)ccc(Cl)c3F)C4C(=O)Nc3ccc(C(=O)O)cc3)CC2)O1 (racemic) [Example 145] | < 5 | – |
| COC(=O)N1CCN(c2cccc3c2CCN(C(=O)/C=C/c2c(-n4cnnn4)ccc(Cl)c2F)C3C(=O)Nc2ccc(C#N)cc2)CC1 (stereo not drawn) [Example 26] | 5 to 10 | – |
| CC(C)NC(=O)C1c2cccc(N3CCC(N4CCCC4)CC3)c2CCN1C(=O)/C=C/c1c(-n2cnnn2)ccc(Cl)c1F (racemic) [Example 240] | – | 47.1 |
| O=C(O)c1ccc(NC(=O)C2c3cccc(N4CCC(N5CCCC5)CC4)c3CCN2C(=O)/C=C/c2cc(Cl)ccc2OC(F)F)cc1 (racemic) [Example 159] | < 5 | – |
| N#Cc1ccc(NC(=O)C2c3cccc(N4CCC(N5CCCC5)CC4)c3CCN2C(=O)/C=C/c2c(-n3cnnn3)ccc(Cl)c2F)cc1 (racemic) [Example 85] | < 5 | – |
| CC1(C)CCN(c2cccc3c2CCN(C(=O)/C=C/c2c(-n4cnnn4)ccc(Cl)c2F)C3C(=O)Nc2ccc(C(=O)O)cc2)CC1 (racemic) [Example 117] | < 5 | – |
| O=C(O)c1ccc(NC(=O)C2c3cccc(N4CCC5(CC4)OCCO5)c3CCN2C(=O)/C=C/c2c(-n3cnnn3)ccc(Cl)c2F)cc1 (racemic) [Example 142] | < 5 | – |
| CN1CCN(c2cccc3c2CCN(C(=O)/C=C/c2c(-n4cnnn4)ccc(Cl)c2F)C3C(=O)Nc2ccc3cn[nH]c3c2)CC1 (stereo not drawn) [Example 27] | < 5 | – |
| CCOC(=O)c1ccc(NC(=O)C2c3cccc(N4CC5CN(C)CC5C4)c3CCN2C(=O)C=Cc2c(-n3cnnn3)ccc(Cl)c2F)cc1 (stereo not drawn) [Example 253] | 5 to 10 | – |
| O=C(Nc1ccccc1)C1c2cccc(N3CCNCC3)c2CCN1C(=O)/C=C/c1c(-n2cnnn2)ccc(Cl)c1F (stereo not drawn) [Example 8] | 5 to 10 | – |
| O=C(O)c1ccc(NC(=O)C2c3cccc(N4CCC(N5CCCC5)CC4)c3CCN2C(=O)/C=C/c2c(O)ccc(Cl)c2F)cc1 (racemic) [Example 162] | < 5 | – |
| CN1CCN(c2cccc3c2CCN(C(=O)/C=C/c2c(-n4cnnn4)ccc(Cl)c2F)C3C(=O)Nc2ccc(C#N)cc2)CC1 (stereo not drawn) [Example 20] | 5 to 10 | – |
| CN(C)CCN1CCN(c2cccc3c2CCN(C(=O)/C=C/c2c(-n4cnnn4)ccc(Cl)c2F)C3C(=O)Nc2ccc(C(=O)O)cc2)CCC1=O (racemic) [Example 263] | < 5 | – |
| Cn1ncc2ccc(NC(=O)C3c4cccc(N5CCC(N6CCCC6)CC5)c4CCN3C(=O)/C=C/c3c(-n4cnnn4)ccc(Cl)c3F)cc21 (racemic) [Example 120] | < 5 | – |
| CN(C)CCN1CCN(c2cccc3c2CCN(C(=O)C=Cc2c(-n4cnnn4)ccc(Cl)c2F)C3C(=O)Nc2ccc(C(=O)O)cc2)CCC1=O (stereo not drawn) [Example 266] | – | < 5 |
| COc1cccc(NC(=O)c2ccc(NC(=O)C3c4cccc(N5CCNCC5)c4CCN3C(=O)/C=C/c3cc(Cl)c(F)cc3-n3cnnn3)cc2)c1 (racemic) [Example 75] | 100 to 500 | – |
| CC(=O)c1ccc(Cl)c(F)c1/C=C/C(=O)N1CCc2c(cccc2N2CCC(C(=O)N(C)C)CC2)[C@H]1C(=O)Nc1ccc(C(=O)O)cc1 [Example 219] | < 5 | – |
| CCOC(=O)c1ccc(NC(=O)C2c3cccc(N4CCOCC4)c3CCN2C(=O)C=Cc2c(-n3cnnn3)ccc(Cl)c2F)cc1 (stereo not drawn) [Example 185] | 5 to 10 | – |

| SMILES | Ki [1] [nM] | Ki (substrate S-2366, Table 1) [nM] |
| --- | --- | --- |
| CN(C)C1CCN(c2cccc3c2CCN(C(=O)/C=C/c2c(C(F)(F)F)ccc(Cl)c2F)C3C(=O)Nc2ccc(C(=O)O)cc2)CC1 (racemic) [Example 223] | < 5 | – |
| N#Cc1ccc(Cl)c(F)c1/C=C/C(=O)N1CCc2c(cccc2N2CCC(N3CCCC3)CC2)C1C(=O)Nc1ccc(C(=O)O)cc1 (racemic) [Example 155] | – | < 5 |
| O=C(O)c1ccc(NC(=O)C2c3cccc(N4CCC(F)CC4)c3CCN2C(=O)C=Cc2c(-n3cnnn3)ccc(Cl)c2F)cc1 (stereo not drawn) [Example 270] | < 5 | – |
| O=C(O)c1ccc(NC(=O)C2c3cccc(N4CCC5(CCNC5)CC4)c3CCN2C(=O)/C=C/c2c(C(F)(F)F)ccc(Cl)c2F)cc1 (racemic) [Example 227] | < 5 | – |
| CN(C)C(=O)c1ccc(NC(=O)C2c3cccc(N4CCNCC4)c3CCN2C(=O)/C=C/c2cc(Cl)c(F)cc2-n2cnnn2)cc1 (racemic) [Example 76] | 500 to 5000 | – |
| CC(=O)c1ccc(Cl)c(F)c1C=CC(=O)N1CCc2c(cccc2N2CCC(N3CCCC3)CC2)C1C(=O)Nc1ccc(C(=O)OCC(=O)N(C)C)cc1 (stereo not drawn) [Example 172] | < 5 | – |
| CCCCOC(=O)c1ccc(NC(=O)C2c3cccc(N4CCC(N5CCCC5)CC4)c3CCN2C(=O)C=Cc2c(-n3cnnn3)ccc(Cl)c2F)cc1 (stereo not drawn) [Example 113] | 100 to 500 | – |
| O=C(O)c1ccc(NC(=O)[C@@H]2c3cccc(N4CCC(O)CC4)c3CCN2C(=O)/C=C/c2c(-n3cnnn3)ccc(Cl)c2F)cc1 [Example 149] | < 5 | – |
| CCOC(=O)c1ccc(NC(=O)[C@H]2c3cccc(N4CCCCC4=O)c3CCN2C(=O)/C=C/c2c(-n3cnnn3)ccc(Cl)c2F)cc1 [compound 44] | 5 to 10 | – |
| O=C(O)c1ccc(NC(=O)C2c3cccc(N4CCC(N5CCCC5)CC4)c3CCN2C(=O)/C=C/c2c(F)ccc(Cl)c2F)cc1 (racemic) [Example 180] | < 5 | – |
| O=C(NC1CCCCC1)C1c2cccc(N3CCC(N4CCCC4)CC3)c2CCN1C(=O)/C=C/c1c(-n2cnnn2)ccc(Cl)c1F (racemic) [Example 239] | < 5 | – |
| CCOC(=O)c1ccc(NC(=O)C2c3cccc(N4CCC(N5CCCC5)CC4)c3CCN2C(=O)/C=C/c2c(-n3cnnn3)ccc(Cl)c2F)cc1 (racemic) [Example 83] | < 5 | – |
| CC(C)(C)OC(=O)c1ccc(NC(=O)[C@@H]2c3cccc(N4CCCCC4=O)c3CCN2C(=O)/C=C/c2c(-n3cnnn3)ccc(Cl)c2F)cc1 [compound 37] | – | 86.5 |
| CC(=O)c1ccc(Cl)c(F)c1C=CC(=O)N1CCc2c(cccc2N2CCC3(CCN(C)C3=O)CC2)C1C(=O)Nc1ccc(C(=O)O)cc1 (stereo not drawn) [Example 221] | 5 to 10 | – |
| COCCOC(=O)c1ccc(NC(=O)C2c3cccc(N4CCC(N5CCCC5)CC4)c3CCN2C(=O)C=Cc2c(C(C)=O)ccc(Cl)c2F)cc1 (stereo not drawn) [Example 174] | < 5 | – |
| O=C(NCCc1c[nH]cn1)c1ccc(NC(=O)C2c3cccc(N4CCNCC4)c3CCN2C(=O)/C=C/c2cc(Cl)c(F)cc2-n2cnnn2)cc1 (racemic) [Example 68] | 100 to 500 | – |
| CC(=O)c1ccc(Cl)c(F)c1/C=C/C(=O)N1CCc2c(cccc2N2CCCCC2=O)[C@H]1C(=O)Nc1ccc(C(=O)O)cc1 [compound 40] | < 5 | – |
| CCOC(=O)c1ccc(NC(=O)C2c3cccc(N4CCC(N5CCCC5)CC4)c3CCN2C(=O)C=Cc2c(C(C)=O)ccc(Cl)c2F)cc1 (stereo not drawn) [Example 170] | < 5 | – |
| CN(C)C(=O)C1CCN(c2cccc3c2CCN(C(=O)/C=C/c2c(-n4cnnn4)ccc(Cl)c2F)C3C(=O)Nc2ccc(C(=O)O)cc2)CC1 (racemic) [Example 100] | < 5 | – |
| CN(C)C1CCN(c2cccc3c2CCN(C(=O)/C=C/c2c(-n4cnnn4)ccc(Cl)c2F)C3C(=O)Nc2ccc(C(=O)OC(C)(C)C)cc2)CC1 (racemic) [Example 91] | 5 to 10 | – |
| CC1(C)Cc2c(cccc2N2CCCCC2)[C@H](C(=O)Nc2ccc(C(=O)O)cc2)N1C(=O)/C=C/c1c(-n2cnnn2)ccc(Cl)c1F [Example 196] | – | 844 |
| O=C(O)c1ccc(NC(=O)C2c3cccc(N4CCC(N5CCCC5)CC4)c3CCN2C(=O)/C=C/c2c(C(F)(F)F)ccc(Cl)c2F)cc1 (racemic) [Example 176] | < 5 | – |
| CN1CCN(c2cccc3c2CCN(C(=O)C=Cc2c(-n4cnnn4)ccc(Cl)c2F)C3C(=O)Nc2ccc(C(=O)O)cc2)CC1 (stereo not drawn) [compound 30] | 100 to 500 | – |
| CN(C)C(=O)C1CCN(c2cccc3c2CCN(C(=O)C=Cc2c(-n4cnnn4)ccc(Cl)c2F)C3C(=O)Nc2ccc(C(=O)O)cc2)CC1 (stereo not drawn) [Example 101] | < 5 | – |
| COC(=O)[C@H]1CC[C@@H](NC(=O)C2c3cccc(N4CCC(N5CCCC5)CC4)c3CCN2C(=O)/C=C/c2c(-n3cnnn3)ccc(Cl)c2F)CC1 (mixture of isomers) [Example 233] | 5 to 10 | – |
| CC(=O)c1ccc(Cl)c(F)c1/C=C/C(=O)N1CCc2c(cccc2N2CCC(N3CCOCC3)CC2)C1C(=O)Nc1ccc(C(=O)O)cc1 (racemic) [Example 220] | < 5 | – |
| O=C(O)c1ccc(NC(=O)[C@@H]2c3cccc(N4CCC(N5CCOCC5)CC4)c3CCN2C(=O)/C=C/c2c(-n3cnnn3)ccc(Cl)c2F)cc1 [Example 139] | < 5 | – |
